Test results: patent US20040235939A1, “Synthesis of peloruside a and analogs thereof for use as antitumor agents” (priority 2003, published 2004)
Like-named read-outs stand apart in the source and are kept apart here.

Experiments:
SK-MEL-5 cells = assay: Cell viability of SK-MEL-5 cells treated with Peloruside analogs; format: cell-based, human; details: SK-MEL-5, 10 to 1000 nM
Procedure: (§1) Cells were treated with medium, DMSO, LX3111 or LX3136 at a final concentration of 10, 50, 100, 200, 300, 400, 500, 600, 800 or 1000 nM. Cell viability was measured by counting surviving cells or measuring luminescence at 48 hours after drug treatment using the Cell Titer-Glo Luminescent Cell Viability Assay (Promega).

HeLa cells = assay: Cell viability of HeLa cells treated with Peloruside analogs; format: cell-based, human; details: 10 to 1000 nM
Procedure: as §1

HeLa = assay: Growth of cultured human tumor cell line HeLa; format: cell-based; details: up to 10 μM
[1] = system: Tubulin, purified from bovine brains; assay: Tubulin polymerization in vitro; format: biochemical
Procedure: Tubulin, purified from bovine brains and prepared in PEM-buffer (80 mM PIPES, 0.5 mM MgCl2, 1 mM EGTA, pH 6.9) was thawed under vacuum on ice. Tubulin was incubated at 37° C. until almost melted and resuspended to a final concentration of 2 mg/ml and placed on ice. Peloruside A or Taxol® was added into transparent 96-well plates (Coming Incorp. Costar) and placed on ice. GTP (Sigma) was added to a final concentration of 1 mM. The 96 well plate was warmed to 37° C. and 120 μl of tubulin solution was added into each well. The absorbance of the reaction at 340 nm over time (each 40-50 sec.) was measured on the spectrophotometer TECAN SPECTRAFluor Plus. Peloruside A or Taxol® was added to the tubulin at a final concentration of 5 or 10 μM.

SK-MEL-5 = assay: Growth of cultured human tumor cell line SK-MEL-5; format: cell-based; details: SK-MEL-5, up to 10 μM

Compound: CC[C@H](/C=C(/C)C1C[C@H](OC)CC(O)C(C)(C)C2(O)OC(C[C@@H](OC)C2O)C[C@@H](OC)[C@H](O)C(=O)O1)CO (stereo partly shown) [LX3111]
- inhibition of cell growth (antimitotic activity) (SK-MEL-5 cells): potent antimitotic activity
- inhibition of cell growth (antimitotic activity) (HeLa cells): potent antimitotic activity

Compound: CC[C@H](/C=C(/C)C1C[C@@H](OC)CC(O)C(C)(C)C2(O)OC(C[C@@H](OC)C2O)C[C@@H](OC)[C@H](OCOC)C(=O)O1)CO (stereo partly shown) [LX3136]
- inhibition of cell growth (antimitotic activity) (SK-MEL-5 cells): potent antimitotic activity
- inhibition of cell growth (antimitotic activity) (HeLa cells): potent antimitotic activity

Compound: (−)-Peloruside A [Compound 40]
- effect on the growth of cultured human tumor cell line (HeLa): no effect on the growth
- effect on the growth of cultured human tumor cell line (HeLa; listed as (−)-Peloruside A): inactive
- polymerization of tubulin dimers into microtubule polymers (microtubule-stabilizing activity) [1]: did not polymerize tubulin dimers into microtubule polymers
- polymerization of tubulin dimers into microtubule polymers (microtubule-stabilizing activity) ([1]; listed as (−)-Peloruside A): biologically inactive
- effect on the growth of cultured human tumor cell line (SK-MEL-5): no effect on the growth
- effect on the growth of cultured human tumor cell line (SK-MEL-5; listed as (−)-Peloruside A): inactive
